This note sets out measurements from ChEMBL document CHEMBL1134969, “Synthesis and evaluation of water-soluble paclitaxel prodrugs” (Bioorg Med Chem Lett, 2002).

Molecules are shown by their SMILES.

Data set [1] concerns L1210. Description: Cytotoxicity expressed as concentration required to inhibit cell growth by 50% on continuous exposure time of 96h in L1210 cell line by MTT assay. It counts as functional, cell-based. The note with it: Mus musculus, L1210, 96 h.
In data set [2] the test system is PG-49 cell line. Description: Cytotoxicity expressed as concentration required to inhibit cell growth by 50% on continuous exposure time of 72 hr in PG-49 cell line by MTT assay. It counts as functional, cell-based. As to conditions: Homo sapiens, PG-49, 72 h. (In general: Tetrazolium assays rely on reduction of a dye to a coloured formazan, in cell work by metabolically active cells.)

Data set [3] relates to L1210. Description: Cytotoxicity expressed as concentration required to inhibit cell growth by 50% on continuous exposure time of 72 hr in L1210 cell line by MTT assay. It counts as functional, cell-based. The note with it: Mus musculus, L1210, 72 h.
The test system of data set [4] is Mus musculus. The experiment in a line: Percentage change in the body weight on day 20 after intravenous administration (10 mg/kg) against B16 melanoma (implanted subcutaneously in mice). The class given is functional.
Data set [5] is described as follows: Toxicity expressed in terms of number of toxic deaths after administration (8 mg/Kg) in athymic mice; out of 6 tested. The note with it: mouse, in vivo.
The subject of data set [6] is PG-49 cell line. Description: Cytotoxicity expressed as concentration required to inhibit cell growth by 50% on continuous exposure time of 96h in PG-49 cell line by MTT assay. The class given is functional, cell-based. As to conditions: Homo sapiens, PG-49, 96 h.
Data set [7] is described as follows: Toxicity expressed in terms of number of toxic deaths after administration (10 mg/Kg) in mice; out of 10 tested. The note with it: mouse, in vivo.
In data set [8] the test system is Mus musculus. The experiment in a line: Tumor inhibition expressed as (average tumor weight of treated group/average tumor weight of control group)*100 at a dose of 10 mg/kg. It counts as functional.
The test system of data set [9] is Mus musculus. The experiment in a line: Percentage change in the body weight on day 20 after intravenous administration (8 mg/Kg) against human breast cancer xenograph Bcap-37 (grown sc in athymic mice). It counts as functional.
The subject of data set [10] is Mus musculus. The experiment in a line: Tumor inhibition expressed as (average tumor weight of treated group/average tumor weight of control group)*100 at a dose of (8 mg/kg). It counts as functional.

In general, IC50 refers to the concentration at which inhibition is half-maximal. In the case of `CC(=O)O[C@H]1C(=O)[C@@]2(C)[C@H]([C@H](OC(=O)c3ccccc3)[C@]3(O)C[C@H](OC(=O)[C@H](O)[C@@H](NC(=O)c4ccccc4)c4ccccc4)C(C)=C1C3(C)C)[C@]1(OC(C)=O)CO[C@@H]1C[C@@H]2O` [PACLITAXEL], the half-inhibitory concentration (IC50) came out at 0.09 nM in data set [1], 2.14 nM in [2], 0.58 nM in data set [3] and 0.31 nM in [6]. For the same molecule, the Body weight change amounted to 7.8% in [4] and 16.9% in data set [9]. In addition, the Toxicity in [5] was 0; in data set [7], 2. In addition, the results for the Tumor inhibition in [8] and in data set [10] were 71.4% and 78.02%, respectively.
